Assay results taken from patent EP0414422A2, “2-Oxo-1-oxa-8-azaspiro [4,5] decane derivatives, processes for their preparation and pharmaceutical compositions thereof” (RICHTER GEDEON VEGYESZETI GYAR R.T., priority 1989, dated 1991).

Experiments:
mice [1] = experiment: Inhibition of the aggressive behaviour of the mice; format: in vivo; conditions: Mus musculus, po; male mice, p.o., 3 hours following the treatment, electric stimulation of 1 mA; read-out: Antiaggressive effect, ED₅₀
Description: (§1) Male CFLP mice with a body-weight of 18 to 25 g and male Hannover-Wistar rats with a body-weight of 160 to 180 g were used for the pharmacological investigations. The test compounds were orally administered in a 2% Tween-80 suspension. The pharmacological investigating methods used are described hereinafter.
4. Inhibition of the aggressive behaviour of the mice
The method described in J. Pharmacol. Expt. Therap. 125, 28 (1959) was used.
Pairs of male mice weighing 20 to 25 each were treated with the test compounds and then placed in cages. 3 hours following the treatment an aggressive behaviour was induced on the animals by using an electric stimulation of 1 mA current intensity. Each group consisted of 5 pairs of mice. The ED₅₀ values were calculated from the percentage of animal pairs showing no aggressive behaviour as a result of the treatment. (ED₅₀ value is the dose inhibiting the aggressive behaviour on 50% of the animals.)

mice [2] = experiment: Measurement of the spontaneous body temperature; format: in vivo; conditions: 30 mg/kg orally, rectal temperature 5 hours following treatment, related to untreated control animals
Description: as §1
3. Measurement of the spontaneous body temperature
Groups consisting of 10 mice each were orally treated with 30 mg/kg doses of the test substances. After treatment the rectal temperature of the male mice was determined each hour for 5 hours. The average values of temperature decrease related to the body temperature of the untreated control animals (37.1±0.8 °C) 5 hours following treatment are given in Table 1.

Acute toxicity = conditions: male, Hannover-Wistar, rat, in vivo, po; rats, p.o., deaths observed for 14 days; read-out: LD₅₀
Description: as §1
Rats were treated with various doses of the test compounds. […] The LD₅₀ value, i.e. the dose causing the death of half of the animals, was determined from the percentage of the dead animals.

aggregated mice = experiment: Protective effect against the amphetamine group toxicity on aggregated mice; format: in vivo; conditions: Mus musculus; male CFLP mice, p.o., one hour before 21 mg/kg d-amphetamine intraperitoneally; surviving animals counted after 24 hours; read-out: Protection against amph. ED₅₀
Description: as §1
1. Protective effect against the amphetamine group toxicity on aggregated mice
The method described in Arch. Int. Pharmacodyn. 163, 79 (1966) was used.
The mice were treated with various doses of the test substances. After one hour following the above treatment, the animals were intraperitoneally given 21 mg/kg of d-amphetamine and then the groups consisting of 10 animals each were tightly packed together in plexiglass boses of 15x15x10 cm in size. After 24 hours had elapsed following the amphetamine treatment the surviving animals were counted. The ED₅₀ values of the substances were calculated from the percentage of the surviving animals. The ED₅₀ value is the dose protecting 50% of the animals from death.

rats = experiment: Inhibition of the conditioned avoidance response (CAR inhibition) on rats; format: in vivo; conditions: Rattus norvegicus, po; male Hannover-Wistar rats, p.o., treated 3 hours before the experiment; dose causing 50% inhibition of the conditioned avoidance response; read-out: CAR ED₅₀
Text: as §1
2. Inhibition of the conditioned avoidance response (CAR inhibition) on rats
The method of D. Bovet et al. (Neuropsychopharmacology, ed. R. Rothlin Vol. 2, p. 142, Elsevier Publishing Co. N.Y. 1961) was used.
Male rats weighing 160 to 180 g were conditioned in an automated 6-channel Shuttle box for 10 days. Each daily session consisted of 50 cycles and each one cycle lasted for 40 seconds. Within a single cycle an intermittent light stimulus for 15 seconds as conditioned stimulus, and an electric stimulus of 0.8 mA for 10 seconds as unconditioned stimulus, were used with an intersignal time of 15 seconds. When an animal changed its half-court during the conditioned stimulus period, the stimulus was abolished and the footshock was avoided (conditioned avoidance response; abbreviated: CAR). Animals with a performance of at least 80% on the 8th to 10th days of conditioning were considered to be useful for the study. 3 hours before the experiment the animals were treated with various doses of the test substances and the ED₅₀ value, i.e. the dose causing an 50% inhibition of the conditioned avoidance response of the animals, was determined. Groups consisting of 10 animals each were used for each dose.

| Structure (SMILES) | ED50 (mice [1]) [mg/kg] | Decrease in the spontaneous temperature (mice [2]) [C°] | LD50 at 14 days (Acute toxicity) [mg/kg] | ED50 (aggregated mice) [mg/kg] | ED50 (rats) [mg/kg] |
| --- | --- | --- | --- | --- | --- |
| C=C1N(CC)C(=O)OC12CCN(CCCN1c3ccccc3Sc3ccc(C(F)(F)F)cc31)CC2 [D, 3-ethyl-4-methylene-2-oxo-8-[3-(2-trifluoromethyl-10H-phenothiazin-10-yl)propyl]-1-oxa-3,8-diazaspiro[4,5]decane] | 2.5 | -8.2 | 500 | 4.1 | 6.8 |
| C=C1N(CCC)C(=O)OC12CCN(CCCN1c3ccccc3Sc3ccc(Cl)cc31)CC2 [E] | 2 | -5.6 | – | 1.8 | 10.6 |
| CN1C(=O)OC2(CCN(CCCN3c4ccccc4Sc4ccc(Cl)cc43)CC2)C1(C)O (centres unmarked) [F, 8-[3-(2-chloro-10H-phenothiazin-10-yl)propyl]-3,4-dimethyl-4-hydroxy-2-oxo-1-oxa-3,8-diazaspiro[4,5]decane] | – | -9.1 | – | 0.7 | 4.6 |
| C=C1N(CC)C(=O)OC12CCN(CCCN1c3ccccc3Sc3ccc(Cl)cc31)CC2 [B, 8-[3-(2-chloro-10H-phenothiazin-10-yl)propyl]-3-ethyl-4-methylene-2-oxo-1-oxa-3,8-diazaspiro[4,5]decane] | 10.9 | -7.4 | 500 | 1.6 | 1.6 |
| CN(C)CCCN1c2ccccc2Sc2ccc(Cl)cc21 [CPZ, 2-chloro-10-(3-dimethylaminopropyl)phenothiazine, reference compound] | 4.3 | -7.9 | 225 | 7.2 | 17.1 |
| C=C1N(C)C(=O)OC12CCN(CCCN1c3ccccc3Sc3ccc(C(F)(F)F)cc31)CC2 [C, 3-methyl-4-methylene-2-oxo-8-[3-(2-trifluoromethyl-10H-phenothiazin-10-yl)propyl]-1-oxa-3,8-diazaspiro[4,5]decane] | 1.2 | -9.9 | 235 | 0.7 | 1.9 |
| CCCN1C(=O)OC2(CCN(CCCN3c4ccccc4Sc4ccc(C(F)(F)F)cc43)CC2)C1(C)O (centres unmarked) [I, 4-hydroxy-4-methyl-2-oxo-3-propyl-8-[3-(2-trifluoromethyl-10H-phenothiazin-10-yl)propyl]-1-oxa-3,8-diazaspiro[4,5]decane] | – | -7.0 | – | 4.2 | 5.6 |
| CN1C(=O)OC2(CCN(CCCN3c4ccccc4Sc4ccc(C(F)(F)F)cc43)CC2)C1(C)O (centres unmarked) [H, 3,4-dimethyl-4-hydroxy-2-oxo-8-[3-(2-trifluoromethyl-10H-phenothiazin-10-yl)propyl]-1-oxa-3,8-diazaspiro[4,5]decane] | – | -9.6 | – | 0.9 | 3.1 |
| C=C1N(C)C(=O)OC12CCN(CCCN1c3ccccc3Sc3ccc(Cl)cc31)CC2 [Compound A, 8-[3-(2-chloro-10H-phenothiazin-10-yl)propyl]-3-methyl-4-methylene-2-oxo-1-oxa-3,8-diazaspiro[4,5]decane] | 1.7 | -8.8 | 353 | 0.6 | 6 |
| CCN1C(=O)OC2(CCN(CCCN3c4ccccc4Sc4ccc(Cl)cc43)CC2)C1(C)O (centres unmarked) [G, 8[3-(2-chloro-10H-phenothiazin-10-yl)propyl]-3-ethyl-4-hydroxy-4-methyl-2-oxo-1-oxa-3,8-diazaspiro[4,5]decane] | – | -8.1 | – | 2.4 | 6.9 |
